Data set [1] relates to human pancreatic stellate cells (PSCs). Kind of data set: Human PSCs incubated with metformin in vitro (immunofluorescence, Western blot). The format is cell-based. The procedure: Following treatment, cells were collected for RNA and protein extraction in order to perform subsequent analysis of gene expression of cytokines and polarization markers, and for analysis of signaling and metabolic pathways. […] Cells were collected for protein extraction for analysis of the activation of fibrosis-related pathways. […] The cells were fixed with 4% paraformaldehyde and blocked with 5% normal donkey serum for 1 h. They were incubated with the designated primary antibodies overnight at 4° C. then for 2 h with the appropriate secondary antibodies at RT. PBS was used for all washes and the stained samples were mounted with Prolong Gold with DAPI. Images were acquired using a confocal microscope. The antibodies used and image acquisition settings are described below. Both cell types were grown in Dulbecco's modified Eagle's medium (Sigma, St. Louis, Mo.) supplemented with 5% (v/v) heat inactivated fetal bovine serum (FBS; Sigma), 100 units/ml penicillin and streptomycin. Cells were cultured at 37° C. in a humidified atmosphere including 5% CO2.
Each tumor sample was homogenized directly in lysis buffer for protein extraction. 20 ug of denatured protein per sample was loaded on 7%, 10% and 12% SDS-polyacrylamide gels. Antibodies used: phospho-p38 MAPKT^180/Y182 and p38; phospho-JNK (SAPK/JNK)^Thr183/Tyr185 and JNK; phospho-AKT^Ser473 and AKT, phospho-ERK(p44/42 MAPK)^T202/Y204 and ERK; phospho-NF-κB^Ser536 and NK-κB; p65^Ser536; phospho-Smad2^Ser465/467 and Smad2; phospho-IGF-I Receptor β^Tyr1135 and IGF; Phospho-IRS-1^Ser612 and IRS; IR; phpspho-stat3^Tyr705 and stat3; Phospho-AMPKα^Thr172 and Ampkα; phospho-Ampkβ^Ser108 and Ampk; phospho-ACC^Ser79 and ACC; Phospho-PDGF Receptor β^Tyr751 and PDGF Receptor β and snail, c-cadherin and vimentin, TGF-β, β-catenin, twist, LC3B. All antibodies listed above were obtained from Cell Signaling Technology (Beverly, Mass.), and diluted 1:1000 with the exception of phospho-JNK (SAPK/JNK)^Thr183/Tyr185, Phospho-NF-κB p65^Ser536, phospho-Smad2^Ser465/467, phospho-IGF-I Receptor β^Tyr1135, Cleaved caspase-3, Phospho-IRS-1^Ser612. Other antibodies used were: αSMA and phospho-Insulin Receptor^Y972 (1:1000 and 1:500, Abcam, Mass.); col-1 (1:1000); MMP-9 and MMP-2 (1:500 and 1:200, EMD Millipore-Billerica, Mass.), AT1 (1:1000, LifeSpan BioSciences Inc, WA), ZEB1 (1:1000, Novus Biologicals, CO), and β-actin (1:5000, Sigma, Mo.). Quantification of protein expression relative to total receptor or β-actin was obtained using Image J software.

For data set [2] the following is noted: patients with type 2 diabetes taking this drug; cited from earlier work.
Another data set deals with human pancreatic cancers. As to the kind of experiment: HA and collagen-I staining of human PDAC surgical samples, patients with or without metformin. It counts as in vivo. An excerpt: Human samples of pancreatic cancer were obtained from the Massachusetts General Hospital tissue repository. Written informed consent from the donor or the next of kin was obtained for the use of these samples for research purposes. Tumors selected received no prior chemotherapy or radiation therapy before the surgical specimen was collected at the time of tumor resection. A total of 28 samples were randomly selected from this subset of samples. Body mass index was obtained for the respective sample. […] Paraffin sections were stained for collagen-I and HA as described below. Images were acquired using confocal microscopy and quantified using Matlab. Data were analyzed anonymously.
For analysis of frozen sections of mouse tumor tissues, the tumors were excised and frozen in optimal cutting temperature compound (Tissue-Tek). Transverse tumor sections, 10 μm thick, were immunostained with specific antibodies. To obtain mosaic images of tumor sections, an Olympus FV1000 confocal laser-scanning microscope was used. A 10× air objective acquired 1260-μm square tiles, and an automated stage scanned throughout the entire cross-section of tumor tissue. The imaged tiles were stitched into a final mosaic image using Olympus software. Antigen expression was quantified by measuring the area occupied by the stain of interest normalized by the area of DAPI-stained nuclei (i.e., unit less), and analyzed using a custom algorithm in MATLAB (The MathWorks). Identical settings and thresholds for analysis were used for all tumors. Antibodies used for immunofluorescence were the following: Collagen-I [LF-68 antibody, 1:50 dilution, provided by Dr Larry Fisher (NIDCR)]; Hyluronan (biotinylated hyaluronan proteoglycan fragment, 385911, Calbiochem, 1:200 dilution); αSMA (C6198 antibody, Sigma, 1:500 dilution); and F4/80 (MCA497A488 antibody, ABDserotec, 1:200 dilution). Cy3-, Cy5- or FITC-conjugated secondary antibodies were used for the detection of signals by confocal microscopy. Slides were counterstained with DAPI for nuclear staining.

As to `CN(C)C(=N)N=C(N)N` [metformin, 3-(diaminomethylidene)-1,1-dimethylguanidine], the “protein levels of MMP9 in PSCs” value in data set [1] (metformin 0, 0.1, 1 and 10 mM, Western blot) was “decreased protein levels of MMP9”. Besides, in data set [1] (metformin 1 mM, 48 h), the “expression of HA in PSCs” value is listed as “decreased” and the “expression of collagen-I in PSCs” value was “decreased”. Also, in data set [1] (metformin 0.1-1mM, Western blot), the “expression of AT1, TGF-β and downstream signaling via SMAD-2, PDGF-I3” value is reported as “reduced expression”. In addition, the “canonical signaling pathways ERK, p38 and STAT3” value in data set [1] (relatively higher doses (1-10 mM)) is “affected canonical signaling pathways”. The “approximate plasma concentration of metformin” value in data set [2] is recorded as around 0.05 mM. Further, the collagen-I expression entry in the data set on human pancreatic cancers (either body weight group) is “no impact”. Moreover, in the data set with human pancreatic cancers (overweight or obese patients, chemo/radiotherapy naive PDAC surgical samples), the “levels of HA lower than in patients not taking metformin” value is given as 30%. Also, the HA levels entry in the data set on human pancreatic cancers (patients of normal weight) is on record as “no difference”.

Source of the values: US20180064662A1 (THE GENERAL HOSPITAL CORPORATION, priority 2015, published 2018).
